Laboratory results: US9340577B2, “HLA binding motifs and peptides and their uses” (priority 1992, dated 2016)
No end group written: not given here.

Assays:
Assay in all cases: biochemical
Type in all cases: binding
HLA-A*0201 (HLA-A2.1) = HLA-A*0201 (HLA-A2.1) (Homo sapiens, UniProt P04439, D140Y/D185E/D98H/E176V/E277Q/G131W/G231S/I119V/I121R/I166T/I218V/L300P/L318F/N151K/N90K/P208A/P217A/Q86G/Q94H/R138H/R169H/T345S)
A*0202 = A*0202 (Homo sapiens, UniProt P04439, D140Y/D185E/D98H/E176V/E277Q/G131W/G231S/I119L/I121R/I166T/I218V/L180W/L300P/L318F/N151K/N90K/P208A/P217A/Q67R/Q86G/Q94H/R138H/R169H/T345S)
A*0203 = A*0203 (Homo sapiens, UniProt P04439, A173T/D140Y/D185E/D98H/E277Q/G131W/G231S/I119V/I121R/I166T/I218V/L180W/L300P/L318F/N151K/N90K/P208A/P217A/Q86G/Q94H/R138H/R169H/T345S)
A*0206 = A*0206 (Homo sapiens, UniProt P04439, D140Y/D185E/D98H/E176V/E277Q/F33Y/G131W/G231S/I119V/I121R/I166T/I218V/L300P/L318F/N151K/N90K/P208A/P217A/Q86G/Q94H/R138H/R169H/T345S)
A*6802 = A*6802 (Homo sapiens, UniProt P04439, A269V/D140Y/D185E/E176V/E277Q/E87N/F33Y/G231S/I121R/I166T/I218V/L180W/L300P/L318F/N151K/P208A/P217A/Q86R/R138H/R169H/S129P/T345S/V36M)

Compound | IC50 (HLA-A*0201 (HLA-A2.1)) [nM] | IC50 (A*0202) [nM] | IC50 (A*0203) [nM] | IC50 (A*0206) [nM] | IC50 (A*6802) [nM]
CSCC[C@H](NC(=O)[C@@H](N)CCCNC(=N)N)C(=O)N1CCC[C@H]1C(=O)N[C@@H](CCC(=O)O)C(=O)N[C@@H](C)C(=O)N[C@@H](C)C(=O)N1CCC[C@H]1C(=O)N1CCC[C@H]1C(=O)N[C@H](C(=O)N[C@H](C(=O)O)C(C)C)C(C)C [Peptide 1317.29] | 55 | 62 | 6.3 | 259 | > 20000
TLFNVTRNDV [Peptide 9013.0230] | 1480 | 69 | 25 | 4840 | > 20000
RLQLSNGNRTV [Peptide 9013.0328] | 5900 | 128 | 57 | > 20000 | 4840
RILQRLLFV [Peptide 1525.27] | 64 | 1590 | 11 | 73 | > 20000
EVFIPNITV [Peptide 9013.0062] | > 20000 | > 20000 | > 20000 | 4260 | 4
ALYSWFVNGT [Peptide 9013.0173] | 661 | 8.9 | 3.6 | 875 | > 20000
LTFWNPPTTV [Peptide 9013.0122] | 210 | 38 | 1.9 | 339 | 23
VLAEAMAAA [Peptide 1516.12] | 17 | 1.9 | 3.2 | 16 | 639
VQWAFDNEL [Peptide 86.0182] | 3230 | 319 | 449 | 256 | > 20000
SLNRSDPVTL [Peptide 9013.0233] | 16200 | 59 | 80 | > 20000 | > 20000
RLTVTTITVYA [Peptide 9013.0305] | 243 | 23 | 205 | 1100 | 53
MTRNPPVPV [Peptide 1539.02] | 9170 | 1140 | 35 | > 20000 | 117
RLLQQLLFI [Peptide 1525.10] | 27 | 70 | 46 | 19 | > 20000
QLSNGNRTLV [Peptide 9013.0229] | > 20000 | 66 | 146 | > 20000 | > 20000
KTITVSAEV [Peptide 9013.0083] | 971 | 42 | 2.6 | 79 | 15
TLKLTIEST [Peptide 9013.0010] | 18300 | 80 | 24 | > 20000 | > 20000
FLSYFKLFL [Peptide 1578.37] | 30 | 2.1 | 8.6 | 45 | 4750
RTLQLLLFV [Peptide 1525.25] | 4.7 | 371 | 468 | 11 | 3210
TLQDVSLEV [Peptide 1578.45] | 701 | 18 | 26 | 2070 | 2680
FLSGCVISYV [Peptide 1578.32] | 43 | 2.7 | 7.4 | 67 | 102
YTCGIQNSV [Peptide 9013.0096] | 1970 | 71 | 310 | 342 | 140
NVAEGKEVV [Peptide 9013.0015] | > 20000 | 1310 | 4750 | > 20000 | 354
ALNTTYLWWV [Peptide 9013.0217] | 223 | 48 | 5.6 | 578 | 7700
TILQQLLFI [Peptide 1525.26] | 95 | 2790 | 367 | 91 | 7030
QLHTQVLFIA [Peptide 9013.0242] | 3940 | 322 | 163 | > 20000 | > 20000

Compound | IC50 (HLA-A*0201 (HLA-A2.1)) [nM] | IC50 (A*0202) [nM] | IC50 (A*0203) [nM] | IC50 (A*0206) [nM] | IC50 (A*6802) [nM]
YVIGTQQAV [Peptide 9013.0024] | 160 | 3.2 | 6.2 | 84 | 3
RILQQMLFI [Peptide 1525.22] | 187 | 709 | 241 | 108 | > 20000
RMLQHLLFI [Peptide 1545.04] | 16 | 10 | 4 | 14 | > 20000
RILQQLLLI [Peptide 1525.20] | 199 | 4680 | 1000 | 82 | > 20000
KLTFLCVTL [Peptide 1516.14] | 19 | 3 | 41 | 123 | > 20000
MTSNPAIPV [Peptide 1539.03] | 1470 | 951 | 68 | 911 | 2
LLLSNGNRTL [Peptide 9013.0227] | 1550 | 158 | 412 | 3990 | > 20000
TLNNSGSYT [Peptide 9013.0065] | > 20000 | 237 | 233 | > 20000 | > 20000
LLIESTPFNVA [Peptide 9013.0268] | 121 | 3.3 | 3.5 | 107 | > 20000
VLKSDLVNEEA [Peptide 9013.0279] | > 20000 | 14 | 3420 | > 20000 | > 20000
YTNWSEIYI [Peptide 1578.56] | 61 | 3.6 | 47 | 216 | 5
ALYWYRTGM [Peptide 86.0189] | 1600 | 13 | 57 | 15600 | > 20000
CC[C@H](C)[C@H](NC(=O)CNC(=O)[C@@H](NC(=O)[C@@H](NC(=O)[C@H](C)NC(=O)CN)[C@@H](C)O)C(C)C)C(=O)N[C@@H](CCSC)C(=O)N[C@H](C(=O)NCC(=O)N[C@H](C(=O)N[C@H](C(=O)O)C(C)C)C(C)C)[C@@H](C)CC [Peptide 9013.0342] | > 20000 | 7520 | 341 | 4530 | 671
QLSTQELFI [Peptide 9013.0057] | 65 | 4.5 | 27 | 7470 | 8170
QITPLCVTL [Peptide 1516.13] | 976 | 124 | 4390 | 634 | 2870
NLNLSCHAV [Peptide 9013.0054] | 633 | 15 | 39 | 7130 | 2200
FIQGAVISFV [Peptide 1578.12] | 255 | 12 | 18 | 345 | 394
PLYSWRINGI [Peptide 9013.0236] | > 20000 | 348 | 14 | > 20000 | > 20000
QLHTQELFI [Peptide 9013.0079] | 832 | 25 | 264 | 11700 | 19100
FQFQNPFPL [Peptide 1578.40] | 8.4 | 0.75 | 3.5 | 6.3 | 3160
RLTVTTITV [Peptide 9013.0067] | 108 | 22 | 36 | 704 | 13000
GMIDDVTAI [Peptide 1578.44] | 23 | 5.3 | 7.3 | 37 | > 20000
RLLTLLSVT [Peptide 9013.0076] | 1830 | 4610 | 1600 | 482 | > 20000
ALYWYKTGI [Peptide 86.0176] | 665 | 21 | 53 | 4120 | 3290
RILQQLLFA [Peptide 1525.14] | 123 | 68 | 68 | 20 | > 20000
